System: Staphylococcus aureus
Assay: Antibacterial activity against methicillin-resistant Staphylococcus aureus harboring 41.7-kilobase conjugative staphylococcal multiresistance plasmid pPR9 conferring high-level mupirocin resistance
Assay type: functional

`C/C(=C\C(=O)OCCCCCCCCC(=O)O)C[C@@H]1OC[C@H](C[C@@H]2O[C@H]2[C@@H](C)[C@H](C)O)[C@@H](O)[C@H]1O` [MUPIROCIN] showed an MIC of at least 1020 mg/L.

Reference: ChEMBL document CHEMBL1671685, “Complete nucleotide sequence and comparative analysis of pPR9, a 41.7-kilobase conjugative staphylococcal multiresistance plasmid conferring high-level mupirocin resistance” (2010)
